Measurements reported in US20090011007A1, “Pharmaceutical Compositions Containing Mixtures of Polymers and Active Agents Poorly Soluble in Water” (Evonik Roehm GmbH, priority 2006, published 2009).
Values after ≈ are worked out from the molar mass of the structure shown.

What was measured:
[1] = Determination of the solubility of felodipine at pH 1.2 (orbital shaker, 24 hours, SGFsp, HPLC); format: physicochemical; settings: SGFsp medium buffered to pH 1.2, simulated gastric fluid, thermodynamic from solid, SGFsp pH 1.2, 37° C., 10 mg in 20 ml, read-out: solubility of felodipine alone at pH 1.2
Protocol: Felodipine has a solubility in water of <1 mg/l […]. The solubility for felodipine was determined for comparison in a medium buffered to pH 1.2 (SGFsp pH 1.2). For this purpose, 10 mg were kept in motion at 37° C. on an orbital shaker in 20 ml of medium for 24 hours. The concentration was determined by means of HPLC. For felodipine alone, without inventive formulation, a solubility of 0.5 mg/l was determined.

[2] = cited from earlier work

solubility at 24 h [1]: 0.5 µg/mL (≈ 1.3 µM)
Compound: CCOC(=O)C1=C(C)NC(C)=C(C(=O)OC)C1c1cccc(Cl)c1Cl (centres unmarked) [felodipine alone, felodipine]
solubility in water [2]: < 1 µg/mL
